# According to patent publication US7101886B2, “Phenylalkyl and pyridylalkyl piperazine derivatives” (Warner Lambert Company, priority 2002, dated 2006):
# Target: T1, dopamine D2 receptor (Homo sapiens, UniProt P14416)
# T1 construct: expressed in transfected cells; host or cells: CHO cells (CHO-hD2L), membrane preparation
# Assay: Dopamine D2 receptor binding ([3H]spiperone radioligand binding)
# Settings: [3H]spiperone binding, membrane preparation from CHO-hD2L cells
# Excerpt: (§1) The ability of the compounds of this invention to bind to the dopamine D2 and serotonin 2A (5HT2A) receptors can be determined using conventional radioligand receptor binding assays. All receptors can be heterologously expressed in cell lines and experiments conducted in membrane preparations from the cell lines using procedures outlined below. IC50 concentrations can be determined by nonlinear regression of concentration-dependent reduction in specific binding. The Cheng-Prussoff equation can be used to convert the IC50 to Ki concentrations.
# Dopamine D2 Receptor Binding:
# [^3H]Spiperone binding to a membrane preparation from CHO-hD2L cells is carried out in 250 μl of 50 mM Tris-HCl buffer containing 100 mM NaCl, 1 mM MgCl2 and 1% DMSO at pH 7.4. Duplicate samples containing (in order of addition) the test compounds, 0.4 nM [^3H]spiperone and approximately 12 μg protein are incubated for 120 minutes at room temperature. Bound radioligand is separated by rapid filtration under reduced pressure through Whatman GF/B glass fiber filters previously treated with 0.3% polyethyleneimine. Radioactivity retained on the filter is determined by liquid scintillation spectrophotometry.
# The title compounds of Examples 1–524 were tested using the above assay, in which specific binding determined in the presence of 1 mM haloperidol was 95%.
# T1 sequence (P14416 whole entry): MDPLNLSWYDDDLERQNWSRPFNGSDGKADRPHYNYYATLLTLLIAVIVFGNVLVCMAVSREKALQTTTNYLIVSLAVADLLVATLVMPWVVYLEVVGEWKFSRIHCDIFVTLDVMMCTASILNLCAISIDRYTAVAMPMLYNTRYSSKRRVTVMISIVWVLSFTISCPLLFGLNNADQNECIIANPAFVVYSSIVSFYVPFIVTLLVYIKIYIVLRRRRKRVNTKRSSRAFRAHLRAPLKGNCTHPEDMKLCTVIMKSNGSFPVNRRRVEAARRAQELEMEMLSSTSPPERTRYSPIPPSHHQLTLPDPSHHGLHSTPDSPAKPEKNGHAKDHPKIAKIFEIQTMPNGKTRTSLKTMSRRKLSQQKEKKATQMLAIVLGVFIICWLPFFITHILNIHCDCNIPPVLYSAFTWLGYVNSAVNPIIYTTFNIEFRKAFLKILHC
row,Ki [nM],Structure (SMILES)
1,6.32,"Cc1cc(C(=O)Nc2ccc(CCN3CCN(c4nsc5ccccc45)CC3)cc2)c(C)o1 [Example 27, 2,5-DIMETHYL-FURAN-3-CARBOXYLIC ACID {4-[2-(4-1,2-BENZISOTHIAZOL-3-YL-PIPERAZIN-1-YL)-ETHYL]-PHENYL}-AMIDE]"
2,8.58,"COc1cccc(S(=O)(=O)Nc2ccc(CCN3CCN(c4nsc5ccccc45)CC3)cc2)c1 [Example 364, N-{4-[2-(4-1,2-BENZISOTHIAZOL-3-YL-PIPERAZIN-1-YL)-ETHYL]-PHENYL}-3-METHOXY-BENZENESULFONAMIDE]"
3,8.2,"Cc1cc(C(=O)Nc2ccc(CCN3CCN(c4nsc5ccccc45)CC3)cc2)n(C)n1 [Example 102, 2,5-DIMETHYL-2H-PYRAZOLE-3-CARBOXYLIC ACID {4-[2-(4-1,2-BENZISOTHIAZOL-3-YL-PIPERAZIN-1-YL)-ETHYL]-PHENYL}-AMIDE]"

# Target: T2, serotonin 2A (5HT2A) receptor (Homo sapiens, UniProt P28223)
# T2 construct: expressed in transfected cells; host or cells: Swiss cells (Swiss-h5HT2A)
# T2 sequence (P28223 whole entry): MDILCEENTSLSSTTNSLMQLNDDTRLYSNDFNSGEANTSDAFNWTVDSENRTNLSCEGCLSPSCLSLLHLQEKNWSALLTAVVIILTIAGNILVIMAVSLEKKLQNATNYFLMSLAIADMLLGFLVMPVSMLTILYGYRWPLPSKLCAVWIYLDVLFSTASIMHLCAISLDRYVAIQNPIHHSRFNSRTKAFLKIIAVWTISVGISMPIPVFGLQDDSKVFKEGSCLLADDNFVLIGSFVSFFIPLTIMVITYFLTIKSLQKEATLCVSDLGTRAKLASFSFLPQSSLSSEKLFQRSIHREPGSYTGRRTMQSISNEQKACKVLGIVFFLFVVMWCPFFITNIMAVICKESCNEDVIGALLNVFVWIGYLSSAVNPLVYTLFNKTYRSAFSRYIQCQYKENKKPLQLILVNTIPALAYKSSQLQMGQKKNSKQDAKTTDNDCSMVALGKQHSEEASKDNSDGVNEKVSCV
# Assay: Serotonin 2A binding ([3H]ketanserin radioligand binding)
# Settings: [3H]ketanserin binding, Swiss-h5HT2A cell membranes
# Excerpt: as §1
# [^3H] Ketanserin binding to Swiss-h5HT2A cell membranes can be carried out in 250 μl of 50 mM Tris-HCl buffer pH 7.4. Duplicate samples containing (in order of addition) test compounds, 1.0 nM [^3H]ketanserin, and approximately 75 μg protein are incubated for 120 minutes at room temperature. Bound radioligand is separated by rapid filtration under reduced pressure through Whatman GF/B glass fiber filters previously treated with 0.3% polyethyleneimine. Radioactivity retained on the filter is determined by liquid scintillation spectrophotometry.
# The title compounds of Examples 1–524 were tested using the above assay, in which specific binding determined in the presence of 1 mM ketanserin was 90%.
row,Ki [nM],Structure (SMILES)
1,1.46,"Cc1cc(C(=O)Nc2ccc(CCN3CCN(c4nsc5ccccc45)CC3)cc2)c(C)o1 [Example 27, 2,5-DIMETHYL-FURAN-3-CARBOXYLIC ACID {4-[2-(4-1,2-BENZISOTHIAZOL-3-YL-PIPERAZIN-1-YL)-ETHYL]-PHENYL}-AMIDE]"
2,0.29,"COc1cccc(S(=O)(=O)Nc2ccc(CCN3CCN(c4nsc5ccccc45)CC3)cc2)c1 [Example 364, N-{4-[2-(4-1,2-BENZISOTHIAZOL-3-YL-PIPERAZIN-1-YL)-ETHYL]-PHENYL}-3-METHOXY-BENZENESULFONAMIDE]"
3,0.25,"Cc1cc(C(=O)Nc2ccc(CCN3CCN(c4nsc5ccccc45)CC3)cc2)n(C)n1 [Example 102, 2,5-DIMETHYL-2H-PYRAZOLE-3-CARBOXYLIC ACID {4-[2-(4-1,2-BENZISOTHIAZOL-3-YL-PIPERAZIN-1-YL)-ETHYL]-PHENYL}-AMIDE]"

# Test system: not given
# Assay: not given
# Settings: not given
row,Structure (SMILES),melting point [°C]
1,COc1cc(CCN2CCN(c3nsc4ccccc34)CC2)c(NC(=O)Cc2cccs2)cc1OC,135
2,COc1cc(CCN2CCN(c3nsc4ccccc34)CC2)c(NC(=O)Nc2c(C)cccc2C)cc1OC,96
3,"O=C1c2ccccc2CN1c1ccccc1CCN1CCN(c2nsc3ccccc23)CC1 [Example 529, 2-{2-[2-(4-BENZO[D]ISOTHIAZOL-3-YL-PIPERAZIN-1-YL)-ETHYL]-PHENYL}-2,3-DIHYDRO-ISOINDOL-1-ONE]",207.6 to 208
4,"CC(C)=CC(=O)Nc1ccc(F)cc1CCN1CCN(c2nsc3ccccc23)CC1 [Example 64, 3-METHYL-BUT-2-ENOIC ACID {2-[2-(4-1,2-BENZISOTHIAZOL-3-YL-PIPERAZIN-1-YL)-ETHYL]-4-FLUORO-PHENYL}-AMIDE]",175
5,COc1cc(CCN2CCN(c3nsc4ccccc34)CC2)c(NC(=O)Cc2ccccc2)cc1OC,142
6,"O=C1c2ccccc2CN1c1cccc(CCN2CCN(c3nsc4ccccc34)CC2)c1 [Example 528, 2-{3-[2-(4-BENZO[D]ISOTHIAZOL-3-YL-PIPERAZIN-1-YL)-ETHYL]-PHENYL}-2,3-DIHYDRO-ISOINDOL-1-ONE]",154.5 to 155.3
7,"COc1cc(CCN2CCN(c3nsc4ccccc34)CC2)c(NC(=O)Nc2ccc(F)cc2)cc1OC [Example 62, 1-{2-[2-(4-1,2-BENZISOTHIAZOL-3-YL-PIPERAZIN-1-YL)-ETHYL]-4,5-DIMETHOXY-PHENYL}-3-(4-FLUORO-PHENYL)-UREA]",211
8,"COc1cc(CCN2CCN(c3nsc4ccccc34)CC2)c(NC(=O)C=C(C)C)cc1OC [Example 65, 3-M ETHYL-BUT-2-ENOIC ACID {2-[2-(4-1,2-BENZISOTHIAZOL-3-YL-PIPERAZIN-1-YL)-ETHYL]-4,5-DIMETHOXY-PHENYL}-AMIDE]",58
9,COc1cc(CCN2CCN(c3nsc4ccccc34)CC2)c(NC(=O)Cc2ccc(Cl)cc2)cc1OC,152
10,"CC(C)=CC(=O)Nc1ccccc1CCN1CCN(c2nsc3ccccc23)CC1 [Example 50, 3-METHYL-BUT-2-ENOIC ACID {2-[2-(4-1,2-BENZISOTHIAZOL-3-YL-PIPERAZIN-1-YL)-ETHYL]-PHENYL}-AMIDE]",52
11,"O=C1c2ccccc2CN1c1ccc(CCN2CCN(c3nsc4ccccc34)CC2)cc1 [Example 527, 2-{4-[2-(4-BENZO[D]ISOTHIAZOL-3-YL-PIPERAZIN-1-YL)-ETHYL]-PHENYL}-2,3-DIHYDRO-ISOINDOL-1-ONE]",175.9
12,COc1cc(CCN2CCN(c3nsc4ccccc34)CC2)c(NC(C)=O)cc1OC,120
13,"COc1cc(CCN2CCN(c3nsc4ccccc34)CC2)c(NC(=O)NC2CCCCC2)cc1OC [Example 63, 1-{2-[2-(4-1,2-BENZISOTHIAZOL-3-YL-PIPERAZIN-1-YL)-ETHYL]-4,5-DIMETHOXY-PHENYL}-3-CYCLOHEXYL-UREA]",156

# More lines, now with the values ahead:
row,melting point [°C],Structure (SMILES)
1,78,"COc1ccc(OC)c(S(=O)(=O)Nc2ccc(OCCN3CCN(c4nsc5ccccc45)CC3)cc2)c1 [Example 46, N-{4-[2-(4-1,2-BENZISOTHIAZOL-3-YL-PIPERAZIN-1-YL)-ETHOXY]-PHENYL}-2,5-DIMETHOXY-BENZENESULFONAMIDE]"
2,90,CC(=O)OC(C)C(=O)Nc1ccc(OCCN2CCN(c3nsc4ccccc34)CC2)cc1 (centres unmarked)
3,187,"COc1cc(CCN2CCN(c3nsc4ccccc34)CC2)c(NS(=O)(=O)c2ccccc2C)cc1OC [Example 58, N-{2-[2-(4-1,2-BENZISOTHIAZOL-3-YL-PIPERAZIN-1-YL)-ETHYL]-4,5-DIMETHOXY-PHENYL}-2-METHYL-BENZENESULFONAMIDE]"
4,142,O=C(Cc1cccs1)Nc1ccc(OCCN2CCN(c3nsc4ccccc34)CC2)cc1
5,166.4 to 166.6,"O=C1c2ccccc2CN1c1ccc(OCCN2CCN(c3nsc4ccccc34)CC2)cc1 [Example 530, 2-{4-[2-(4-BENZO[D]ISOTHIAZOL-3-YL-PIPERAZIN-1-YL)-ETHOXY]-PHENYL}-2,3-DIHYDRO-ISOINDOL-1-ONE]"
6,176,"Cn1cnc(S(=O)(=O)Nc2ccc(OCCN3CCN(c4nsc5ccccc45)CC3)cc2)c1 [Example 44, 1-METHYL-1H-IMIDAZOLE-4-SULFONIC ACID {4-[2-(4-1,2-BENZISOTHIAZOL-3-YL-PIPERAZIN-1-YL)-ETHOXY]-PHENYL}-AMIDE]"
7,120,CC(=O)Nc1ccc(S(=O)(=O)Nc2ccc(OCCN3CCN(c4nsc5ccccc45)CC3)cc2)cc1
8,167,"COc1cc(CCN2CCN(c3nsc4ccccc34)CC2)c(NS(=O)(=O)c2ccccc2F)cc1OC [Example 56, N-{2-[2-(4-1,2-BENZISOTHIAZOL-3-YL-PIPERAZIN-1-YL)-ETHYL]-4,5-DIMETHOXY-PHENYL}-2-FLUORO-BENZENESULFONAMIDE]"
9,227,Cc1nc(S(=O)(=O)Nc2ccc(OCCN3CCN(c4nsc5ccccc45)CC3)cc2)cn1C
10,85,Cc1nn(C)c(Cl)c1S(=O)(=O)Nc1ccc(OCCN2CCN(c3nsc4ccccc34)CC2)cc1
11,196,COc1cc(CCN2CCN(c3nsc4ccccc34)CC2)c(NS(=O)(=O)c2c(C)nn(C)c2C)cc1OC
12,65,"O=S(=O)(Nc1ccc(OCCN2CCN(c3nsc4ccccc34)CC2)cc1)c1ccccc1 [Example 47, N-{4-[2-(4-1,2-BENZISOTHIAZOL-3-YL-PIPERAZIN-1-YL)-ETHOXY]-PHENYL}-BENZENESULFONAMIDE]"
13,233,COc1cc(CCN2CCN(c3nsc4ccccc34)CC2)c(NS(=O)(=O)c2cn(C)c(C)n2)cc1OC
